Laboratory results reported in patent publication EP0671947B1, “COMPOSITIONS FOR ELICITING CYTOTOXIC T-[…] AGAINST VIRUSES” (BOARD OF REGENTS THE UNIVERSITY OF TEXAS SYSTEM, priority 1991, dated 1993).
Several values for one entry are separate records, joined by “and”; a condition that tells them apart may be missing. Equal values may be shown once. Entries after “also recorded” stand apart in the source; their conditions may differ. Read-outs that look alike come from different tables or passages of the source. Ends that are not written are not given here.

Key:
[1] = system: BALB/c mice; assay: ELISA for anti-peptide antibody response after immunization; settings: high molecular weight forms
[2] = format: in vivo, Balb/c mice
[3] = system: HIV-1 infected CCRF-CEM and uninfected Molt-4 cells; settings: cited from earlier work
[4] = system: PBMC; assay: PBMC proliferation after immunization with a mixture of eight synthetic peptides; format: in vivo, rhesus monkeys; parameters: key to T-cell Proliferation Responses, Rhesus Monkey #7 / T-cell Proliferation Responses, Rhesus Monkey #23 / T-cell Proliferation Responses, Rhesus Monkey #283C: (-), no detectable response; (1+), poor response; (2+), good response; (3+), better response; (4+, 6+), best response; (4+, 6+), best response; settings: for T-cell Proliferation Responses, Rhesus Monkey #7 / T-cell Proliferation Responses, Rhesus Monkey #23 / T-cell Proliferation Responses, Rhesus Monkey #283C: PBMC response to the individual antigen after immunization with mixture of eight peptides; for proliferative responses of PBMCs (in words): three rhesus monkeys immunized with mixture of eight peptides
Procedure: In the present studies, three rhesus monkeys (#7, #23 and #283C) were immunized subcutaneously with 1 ml (0.1 ml/site) of a mixture of eight synthetic peptides (300 µg of each peptide in sterile water) emulsified in complete Freund's adjuvant at 1:1 ratio. […] At 3 and 7 weeks after the primary immunization, two booster injections of the peptide mixture (150 µg of each peptide in sterile water) emulsified in incomplete Freund's adjuvant were given to each monkey. Monkey #7 was terminated after 34 weeks, for health reasons unrelated to the study, while the remaining two monkeys (#283C and #23) received one additional booster injection at 25 weeks.
At two week intervals following the first immunization of each animal, 15 ml of whole heparinized blood was collected by venous puncture. The peripheral blood mononuclear cells (PBMC) were separated by standard ficoll-hypaque centrifugation and employed in proliferation assays. The PBMCs were monitored every two weeks for a period of 32 weeks for proliferative responses against individual peptides and recombinant gp160.

[5] = system: PLN cells; assay: In vitro proliferation of PLN cells (3H-TdR incorporation) after footpad immunization; format: in vivo, B6C3 F1 mice; settings: disulfide (di-Cys) polymeric form; summary of mouse studies
Procedure: The high molecular weight, multimeric di-Cys peptide polymeric forms of the peptides described in EXAMPLE 1 were assayed for their elicitation of a T cell proliferative response as in Millich et al. (1985).
FIGURES 2-5 illustrate the peptide-specific ^3H-TdR incorporation for T cell responses (delta cpm) in mice with differing major histocompatibility (MHC) haplotypes, B6C3 F1 (C57B1/6xC^3H/HcJ) mice (FIGURES 2 and 4) and (A.SWxBALB/c) F1 mice (FIGURES 3 and 5), for all of the synthetic peptides. The ^3H-TdR incorporation values represent the difference between the radioactivity values obtained in wells containing antigen and in control wells without added antigen. The non-specific proliferation of PLN cells was determined by including an unrelated peptide in the assays, shown as a horizontal bar for each peptide.

[6] = system: HIV-1 IIIB; assay: Effect of V3 loop peptides on HIV-1 IIIB infection of human cells (RT activity); format: cell-based; settings: for RT ACTIVITY (CPM): No Peptide 7528, Uninfected cells 558
Excerpt: As detailed in TABLE 11A, these peptides include D23, D24, D25, D26, D30, D35, D38, D39, D40 and D44, which reflect a variety of strains such as mn, rf, wmj-3, sc, z6, eli, mn (y-l) and mn (y-p). However, it is important to note that this assay was confined specifically to inhibiting the infection of the heterologous strain HIV-1 IIIB. […]

[7] = system: P815
[8] = system: envelope protein gp160 of HIV-1 IIIB, mn or rf strains; format: cell-based
[9] = system: HIV-1; format: cell-based, HIV-1 IIIB
[10] = system: HIV-1; format: cell-based; settings: various concentrations, seven days after infection
[11] = system: HIV-1; format: cell-based; settings: various concentrations, seven days after infection; remark: listed apart in the source
[12] = system: 3A9; format: in vivo, Balb/c mice
[13] = system: HIV-1; format: cell-based; settings: seven days after infection
[14] = 1 µg/ml, RT activity in culture supernatant after 9 days, IIIB strain

CRIKQIINMWQGVGKAMYA [Peptide 65]
anti-peptide antibody titers (in words) [1]: high antibody titers

CRIKQIINMWQGVGKAMYA [Peptide 122]
CTL-inducing activity ([2]; helper T-cell peptide injected alone): lacked CTL-inducing activity

CTRPNNNTRKSIRIQRGPGRAFVTIGKIGNMRQAHC [reference compound]
inhibition of syncytium formation ([3]; 100 µM (approximately 300 µg/ml)): 30-60%

FEPIPIHYCAFPGF [Peptide 114]
anti-peptide antibody titers (in words) [1]: high antibody titers

FLGFLGAAGSTMGAASLTLTVQANQ [Peptide 63]
T-cell Proliferation Responses, Rhesus Monkey #7 [4]: 2+ | T-cell Proliferation Responses, Rhesus Monkey #23 [4]: 4+ | T-cell Proliferation Responses, Rhesus Monkey #283C [4]: 3+ | proliferative responses of PBMCs (in words) [4]: good proliferative responses | anti-peptide antibody titers (in words) [1]: very low to negligible; also recorded: do not stimulate anti-peptide antibody production | T cell response directed against both the corresponding peptide and native gp160 [5]: strong T cell response

GIAIGPGRTLYAREK [Peptide D27]
RT ACTIVITY (CPM) [6]: 7657 CPM

GIHFGPGQALYTTGI [Peptide D33]
RT ACTIVITY (CPM) [6]: 8959 CPM

GTGPCTNVSTVQC [Peptide 116]
T-cell Proliferation Responses, Rhesus Monkey #7 [4]: 1+ | T-cell Proliferation Responses, Rhesus Monkey #23 [4]: 3+ | T-cell Proliferation Responses, Rhesus Monkey #283C [4]: 2+ | proliferative responses of PBMCs (in words) [4]: weak responses | anti-peptide antibody titers (in words) [1]: very low to negligible

GVPVWKEATTLFC [Peptide 105]
proliferative responses of PBMCs (in words) [4]: A significant response was not detected

HGEFAPGNYPALWSYA [Peptide B105, reference compound]
in vivo CTL response ([7]; […], same immunization protocol): successfully generated

HIGPGRAFYTTKN [Peptide H13N]
syncytia [8]: no syncytia were observed | inhibition of HIV-1 infection of primary human T cells [9, 14]: > 60%

KKFNGTGPCTN [Peptide 115]
anti-peptide antibody titers (in words) [1]: high antibody titers

LWDQSLKPCVKLT [Peptide 111]
T-cell Proliferation Responses, Rhesus Monkey #7 [4]: 3+ | T-cell Proliferation Responses, Rhesus Monkey #23 [4]: 2+ | T-cell Proliferation Responses, Rhesus Monkey #283C [4]: 3+ | proliferative responses of PBMCs (in words) [4]: good proliferative responses | anti-peptide antibody titers (in words) [1]: very low to negligible

NNTRKSIRIQRGPGRAFVTIGKIG [Peptide N24G]
concentration required for inhibition of syncytium formation ([3]; to achieve the same level of inhibition (30-60%)): 300 µM | inhibition of HIV-1 infection of primary human T cells [9, 14]: 92%

NNTRKSITKGPGRVIYATGQIIGD [Peptide D26]
RT ACTIVITY (CPM) [6]: 2093 CPM

RIHIGPGARFLTTKN [Peptide D39]
RT ACTIVITY (CPM) [6]: 1978 CPM

RIHIGPGRAFFTTKN [Peptide D40]
RT ACTIVITY (CPM) [6]: 2805 CPM

RIHIGPGRAFYTTKN [Peptide D24]
RT ACTIVITY (CPM) [6]: 5000 CPM

RIQRGPGRAFVTIGK [Peptide R15K]
time to CTL induction in the popliteal lymph node ([2]; mouse, in vivo): ≤ 7 days | HIV-1 infection of CEM cells, reverse transcriptase activity in culture supernatant [10]: inhibits HIV-1 infection | proliferative responses of PBMCs (in words) [4]: A significant response was not detected | HIV-1 infection of H9 cells, reverse transcriptase activity in culture supernatant [11]: inhibits HIV-1 infection | % RT INHIBITION [6]: 73.2% | RT ACTIVITY (CPM) [6]: 2021 CPM | inhibitory activity retained, of control untreated peptide (bovine, fetal calf serum, 24 h): 50% | time for which full strength inhibitory activity was retained (incubation in fetal calf serum at 37°C, tested at 1 µg/ml on MT-4 cells): up to 4 hours | syncytia [8]: no syncytia were observed | % Specific Lysis ([12]; mouse, in vivo): 7.0% and 0.6% and 0% and 10.0% and 8.0% | inhibition of HIV-1 infection of primary human T cells [9]: 92% | cytotoxicity after pre-treatment of effector cells with anti-CD4 MAbs plus complement, or complement alone ([7]; monomeric peptide): no significant effect | Lysis of MHC-matched target cells without peptide pre-treatment (P815) ([7]; mouse, in vivo): not observed | cytotoxicity after treatment of CTL effectors with anti-CD8 MAbs and rabbit complement ([7]; mouse, in vivo): abolished the cytotoxicity | lysis of P815 cells infected with recombinant vaccinia virus expressing HIV gp160 (VPE16) ([7]; mouse, in vivo): specifically lysed | mice with CTLs specifically lysing P815 pre-incubated with the peptide ([7]; mouse, in vivo): 8 of 12 and 13 of 13 and 6 of 8 | HIV-1 infection of MT-4 cells, reverse transcriptase activity in culture medium [13]: inhibits HIV-1 infection

RTPTGLGQSLYTTRS [Peptide D38]
RT ACTIVITY (CPM) [6]: 5823 CPM

RVTLGPGRVWYTTGE [Peptide D29]
RT ACTIVITY (CPM) [6]: 13009 CPM

SIHIGPGRAFYATGD [Peptide D30]
RT ACTIVITY (CPM) [6]: 3443 CPM

SIRIGPGKVFTAKGG [Peptide D31]
RT ACTIVITY (CPM) [6]: 11877 CPM

SISIGPGRAFFATTD [Peptide D34]
RT ACTIVITY (CPM) [6]: 11142 CPM

SITKGPGRVIYATGQ [Peptide D28]
RT ACTIVITY (CPM) [6]: 7634 CPM

SIYIGPGRAFHTTGR [Peptide D32]
RT ACTIVITY (CPM) [6]: 8002 CPM

SLKPCVKLTPLC [Peptide 112]
anti-peptide antibody titers (in words) [1]: high antibody titers

SLSIGPGRAPRTREI [Peptide D25]
RT ACTIVITY (CPM) [6]: 4342 CPM

STPIGLGQALYTTRG [Peptide D35]
RT ACTIVITY (CPM) [6]: 5242 CPM

STPIGLGQALYTTRI [Peptide D37]
RT ACTIVITY (CPM) [6]: 7027 CPM

SVITQACSKVSFE [Peptide 113]
T-cell Proliferation Responses, Rhesus Monkey #7 [4]: 1+ | T-cell Proliferation Responses, Rhesus Monkey #23 [4]: 2+ | T-cell Proliferation Responses, Rhesus Monkey #283C [4]: 2+ | proliferative responses of PBMCs (in words) [4]: weak responses | anti-peptide antibody titers (in words) [1]: very low to negligible; also recorded: do not stimulate anti-peptide antibody production | T cell response directed against both the corresponding peptide and native gp160 [5]: strong T cell response

TKGPGRVIYATGQ [Peptide T13Q]
syncytia [8]: no syncytia were observed | inhibition of HIV-1 infection of primary human T cells [9, 14]: > 60%

TYQRTRALVTG [Peptide B106, reference compound]
% Specific Lysis ([12]; effector cells: No Treatment, target 3A9 (H-2^k), E:T 80:1): 0% | % Specific Lysis ([12]; effector cells: No Treatment, target 3A9 (H-2^k), E:T 160:1): 0%

VQCTHGIRPVVSTQ [Peptide 117]
anti-peptide antibody titers (in words) [1]: high antibody titers

VYYGVPVWKEA [Peptide 104]
T-cell Proliferation Responses, Rhesus Monkey #7 [4]: 4+ | T-cell Proliferation Responses, Rhesus Monkey #23 [4]: 2+ | T-cell Proliferation Responses, Rhesus Monkey #283C [4]: 4+ | proliferative responses of PBMCs (in words) [4]: good proliferative responses | anti-peptide antibody titers (in words) [1]: very low to negligible; also recorded: do not stimulate anti-peptide antibody production | T cell response directed against both the corresponding peptide and native gp160 [5]: strong T cell response

YLRDQQLLGIWGC [Peptide 61]
T-cell Proliferation Responses, Rhesus Monkey #23 [4]: 3+ | T-cell Proliferation Responses, Rhesus Monkey #283C [4]: 2+ | proliferative responses of PBMCs (in words) [4]: Two of the three rhesus monkey-derived PBMC preparations also showed good proliferative responses | anti-peptide antibody titers (in words) [1]: very low to negligible; also recorded: do not stimulate anti-peptide antibody production | T cell response directed against both the corresponding peptide and native gp160 [5]: strong T cell response

YNKRKRIHIGPGRAFYTTKNNIGC [Peptide D23]
RT ACTIVITY (CPM) [6]: 94 CPM
